Experimental data as given in PubChem BioAssay AID792 (PCMD, 2007).
Results filed as inconclusive are left out. Active and inactive are the calls of the source. No rule for the calls is given here.

Molecular target: S. cerevisiae eIF2B mutant, luciferase reporter luminescence
Experiment: eIF2B reporter inhibitors in yeast strains, dose response, S. cerevisiae, mutant, wild-type, luminescence, growth (AID 792)
[1] = measured here: mutant yeast growth
[2] = S. cerevisiae wild-type, luminescence

Compound | IC50 | IC50 [1] [µM] | IC50 [2] [µM]
Cn1c(/N=C/c2c(O)ccc3ccccc23)nc2ccccc21 | > 100 µM (inactive) | > 100 | 
O=C(Nc1nnc(COc2ccc(Cl)cc2)s1)c1cccs1 | > 100 µM (inactive) | > 100 | 
CCOC(=O)C1CCCN(C(=O)C(C)Oc2ccc(Cl)cc2Cl)C1 (stereo not drawn) | > 100 µM (inactive) | > 100 | 
Cc1nc(N2CCN(C(=O)c3ccco3)CC2)c2c3c(sc2n1)CCCC3 | > 100 µM (inactive) | > 100 | 
Cc1ccc2c(c1)N(CC(=O)NC1CCC(C)CC1)C(=O)CO2 (stereo not drawn) | > 100 µM (inactive) | > 100 | 
Cc1ncc(CO)c2cc(C(N)=O)c(=Nc3ccccc3)oc12 | > 100 µM (inactive) | > 100 | 
CCC(Sc1nc2sc(C(=O)OC)c(C)c2c(=O)n1N)C(=O)NCC1CCCO1 (stereo not drawn) | > 100 µM (inactive) | > 100 | 
Cc1nc2ccc(NC(=O)Cc3ccsc3)cc2s1 | > 100 µM (inactive) | > 100 | 
CCOC(=O)N1CCN(C(=O)COc2cc(=O)n(CC)c3ccccc23)CC1 | > 100 µM (inactive) | > 100 | 
CN(C)P(=O)(C(Cl)=C(N1CCCCC1)N1CCCCC1)N(C)C | > 100 µM (inactive) | > 100 | 
Nn1cnnc1SC1CCCCC1NS(=O)(=O)c1ccccc1 (stereo not drawn) | > 100 µM (inactive) | > 100 | 
Cn1c(=O)cc(SCC(=O)NCCCN2CCOCC2)c2ccccc21 | > 100 µM (inactive) | > 100 | 
CCOC(=O)c1sc(N)c(C#N)c1CSc1nc2ccc(C)cc2[nH]1 | > 100 µM (inactive) | > 100 | 
O=C1c2ccccc2C(=O)C1c1ccncc1 | inactive | > 100 | 17.9
Cc1csc(NC(=O)c2cccn2C)n1 | inactive | > 100 | 16.4
CCC(C)c1ccc(OCC(=O)O)cc1 (stereo not drawn) | > 100 µM (inactive) | > 100 | 
CCN1CCN(c2cc(C(C)(C)C)nc3c(-c4ccccc4)c(C)nn23)CC1 | inactive | 15.8 | 
CCOC(=O)Cc1csc(NC(=O)CCc2ccc(S(=O)(=O)N3CCOCC3)cc2)n1 | > 100 µM (inactive) | > 100 | 
Cc1ccccc1C(=O)Nc1ccccn1 | > 100 µM (inactive) | > 100 | 
COc1ccc(N/C=C(\C#N)c2nc3ccccc3n2C)c(OC)c1 | > 100 µM (inactive) | > 100 | 
CN(C)S(=O)(=O)c1cccc(NC(=O)COC(=O)c2ccc(Br)o2)c1 | > 100 µM (inactive) | > 100 | 

Compound | IC50 | IC50 [1] [µM] | IC50 [2] [µM]
CCCCNC(=O)OC1CCS(=O)(=O)C1 (stereo not drawn) | > 100 µM (inactive) | > 100 | 
COCCn1c(C)cc(C2=NNC(=Nc3ccccc3)SC2)c1C | > 100 µM (inactive) | > 100 | 
CCOC(=O)C1(C)/C(=N/Nc2ccccc2)C(=O)C(=O)N1c1ccccc1 (stereo not drawn) | > 100 µM (inactive) | > 100 | 
CCN(C(C)=O)c1nc(CSc2nnc(NC(C)C)s2)cs1 | > 100 µM (inactive) | > 100 | 
CCOC(=O)c1ccc(N2C(=O)C=CC2=O)cc1 | inactive | 6.02 | 
CCCCOc1ccc(C2CC(=O)N(C)C2=O)cc1 (stereo not drawn) | > 100 µM (inactive) | > 100 | 
COC(=O)c1nn(-c2ccc3c(c2)CCN3C(C)=O)cc1O | inactive | > 100 | 3.61
Cn1c(SC2C(=O)CC(C)(C)CC2=O)nnc1-c1ccco1 | > 100 µM (inactive) | > 100 | 
COc1ccc(C(=O)/C=C/Nc2ccccn2)cc1 | inactive | > 100 | 18.3
COc1ccc(Cl)cc1-n1c(N)c(C(N)=O)sc1=S | > 100 µM (inactive) | > 100 | 
Cc1c(O)c(CN2CCCC2)cc2c1oc(=O)c1ccccc12 | > 100 µM (inactive) | > 100 | > 100
O=C(CCS(=O)CCC(=O)NCc1ccccc1)NCc1ccccc1 | > 100 µM (inactive) | > 100 | 
CCCS(=O)(=O)N1CCC(C(=O)NCCc2ccc(C)cc2)CC1 | > 100 µM (inactive) | > 100 | 
COc1ccccc1NC(=O)Cc1csc(N)n1 | > 100 µM (inactive) | > 100 | 
CCCn1nnc(NC(=O)C(c2ccccc2)c2ccccc2)n1 | > 100 µM (inactive) | > 100 | 
CC(C)CC[n+]1ccn(-c2nc3ccccc3nc2[N-]S(=O)(=O)c2ccccc2)c1 | > 100 µM (inactive) | > 100 | 
Cc1c(C(=O)Nc2nccs2)sc2nc(-c3cccs3)cc(C(F)(F)F)c12 | > 100 µM (inactive) | > 100 | 
Cc1ccc(SCc2cc(=O)[nH]c(N3CCN(Cc4ccc5c(c4)OCO5)CC3)n2)cc1 | > 100 µM (inactive) | > 100 | 
CCC(CC)c1nnc(NC(=O)c2cccc(S(=O)(=O)N3CCc4ccccc43)c2)s1 | > 100 µM (inactive) | > 100 | 
Cn1c(=O)[nH]c(=O)c2c1nc(Br)n2CCCCSc1nc2ccccc2o1 | > 100 µM (inactive) | > 100 | 
COC(=O)c1nn2c(C(F)(F)F)cc(-c3ccc(Br)o3)nc2c1Br | > 100 µM (inactive) | > 100 | 

Compound | IC50 | IC50 [1] [µM] | IC50 [2] [µM]
CCOC(=O)N1CCN(c2cc(NCCC(=O)O)c3c4c(onc24)-c2ccccc2C3=O)CC1 | > 100 µM (inactive) |  | 
COc1ccc2[nH]c(=O)c(CN(C(=O)c3cccnc3)c3ccc(C)cc3)cc2c1 | > 100 µM (inactive) | > 100 | 
O=C1CNC(=O)N1Cc1ccc(Br)cc1 | > 100 µM (inactive) | > 100 | 
CCOC(=O)CSC1=Nc2ccccc2C2=NC(CC(=O)NCc3ccccc3)C(=O)N12 (stereo not drawn) | > 100 µM (inactive) | > 100 | 
CCOc1ccccc1NC(=O)c1ccccc1-c1nc(-c2ccccc2)no1 | > 100 µM (inactive) | > 100 | 
N#CC(C(=O)OC1CCCCC1)c1nc2ccccc2nc1N1CCOCC1 (stereo not drawn) | > 100 µM (inactive) | > 100 | 
CCCCOc1ccc(OCCCC)c2c1NC1(N2)C(=O)N(C(C)=O)c2ccccc21 | > 100 µM (inactive) | > 100 | 
CNC(=O)CSc1nc(N)c2c3c(sc2n1)CCC3 | > 100 µM (inactive) | > 100 | 
CC(C)CCNC1=NCCCCC1 | > 100 µM (inactive) | > 100 | 
Oc1cc(Cc2ccccc2)cnc1CN1CCCCC1 | > 100 µM (inactive) | > 100 | 
CCn1c(SCC(=O)Nc2oc(-c3ccccc3)c(-c3ccccc3)c2C#N)nnc1-c1ccco1 | > 100 µM (inactive) | > 100 | 
Cc1ccc(-c2cn(S(=O)(=O)c3cccc4nsnc34)nc2N)cc1 | > 100 µM (inactive) | > 100 | 
CCOC(=O)c1c(C)[nH]c(C(=O)Nc2ccc3c(c2)OCO3)c1C | > 100 µM (inactive) | > 100 | 
CCOC(=O)C1=C(C)NC(SCc2cc(=O)[nH][nH]2)=C(C#N)C1c1cccs1 (stereo not drawn) | > 100 µM (inactive) | > 100 | 
CCCCn1nnnc1SCC(=O)N1CCOCC1 | > 100 µM (inactive) | > 100 | 
Cc1nn(C)c(C)c1CN(C)C(=O)c1cc2nc(-c3ccco3)cc(C(F)(F)F)n2n1 | > 100 µM (inactive) | > 100 | 
COc1cc(-c2nn3c(-c4ccccn4)nnc3s2)cc(OC)c1OC | > 100 µM (inactive) | > 100 | 
O=C(C1CCN(S(=O)(=O)N2CCOCC2)CC1)N1CCOCC1 | > 100 µM (inactive) | > 100 | > 100
CN1CCN(CCC(=O)Nc2ccc3c(c2)OCO3)CC1 | > 100 µM (inactive) | > 100 | 
O=C(CC(Nc1ccccc1)C(=O)O)c1ccccc1 (stereo not drawn) | > 100 µM (inactive) | > 100 | 
CCC(C(=O)NCc1ccc(OC)cc1)n1nc(C)n2c(cc3occc32)c1=O (stereo not drawn) | > 100 µM (inactive) | > 100 | 

Compound | IC50 | IC50 [1] [µM] | IC50 [2] [µM]
CC(C)C(NC(=O)c1ccccc1)C(=O)NC1=NCCS1 (stereo not drawn) | > 100 µM (inactive) | > 100 | 
COc1ccc(OC)c(C2=Nn3c(nnc3-c3cccc(OC(C)C)c3)SC2)c1 | > 100 µM (inactive) | > 100 | 
COc1cc2cc(C(c3nnnn3C3CCCCC3)N(C)C3CCCCC3)c(=O)[nH]c2cc1OC (stereo not drawn) | > 100 µM (inactive) | > 100 | 
CSC1=NCCN1C(=O)c1cccc(C(F)(F)F)c1 | > 100 µM (inactive) | > 100 | 
COc1ccc(S(=O)(=O)N2CCCCC2C(=O)O)cc1OC (stereo not drawn) | > 100 µM (inactive) | > 100 | 
Cc1cc(=O)[nH]c(SCc2cc(Cl)ccc2OC(F)F)n1 | > 100 µM (inactive) | > 100 | 
CN(C)c1nc(N(C)C)nc(N(C#N)CCOc2ccccc2)n1 | > 100 µM (inactive) | > 100 | 
COc1cc(C(=S)N2CCCC2)cc(OC)c1O | > 100 µM (inactive) | > 100 | 
COC(=O)c1sc(NC(=O)COc2cccc3ccccc23)nc1C | > 100 µM (inactive) | > 100 | 
COC(=O)CC1Oc2ccccc2N(Cc2ccc(C)cc2)C1=O (stereo not drawn) | > 100 µM (inactive) | > 100 | 
Cc1cnc(NC(=O)CN(C)S(=O)(=O)c2ccc(Cl)cc2)s1 | > 100 µM (inactive) | > 100 | 
O=C(Cn1nnc(-c2ccc(Cl)cc2)n1)NC1CC2CCC1C2 (stereo not drawn) | > 100 µM (inactive) | > 100 | 
COc1ccccc1CNC(=O)CN1CCC(NC(=O)c2ccccc2F)CC1 | > 100 µM (inactive) | > 100 | 
COC(=O)NC(=C(Cl)Cl)S(=O)(=O)c1ccccc1 | > 100 µM (inactive) | > 100 | 
CCC(=O)N1CCc2cc(S(=O)(=O)NC(C(=O)NCc3ccc(F)cc3)C(C)C)ccc21 (stereo not drawn) | > 100 µM (inactive) | > 100 | 
CCc1ccc2c(c1)C1(NN=C(c3ccc(C)cc3)S1)C(=O)N2 (stereo not drawn) | inactive | 99 | > 100
C=CCn1c(COc2ccccc2F)nnc1SCC(=O)Nc1cc2oc3ccccc3c2cc1OC | > 100 µM (inactive) | > 100 | 
CC(=O)Nc1ccc(C(=O)NC2CCCC2)cc1 | > 100 µM (inactive) | > 100 | 
